Non-standard residues stand in square brackets, D forms with d. Hyp = O=C(O)[C@@H]1C[C@@H](O)CN1
system: endothelial cell line EA.hy 926; assay: MTT test (cell metabolic activity / cytotoxicity); assay type: cell-based; conditions: EA.h 926 cells incubated with peptide for 1 day and for 7 days; concentration range 10 μM to 10 mM; compared with Control− (medium only); five replicates, average
Protocol: The endothelial cell line EA.hy 926 (ATCC, Manassas, VA, USA) was used. The MTT test was performed using endothelial cells of the EA.hy 926 line. The extracts (2 mg/mL) were incubated in DMEM (Corning) for 48 h at 37 °C. Cells were seeded into a 96-well plate with 1 × 10^4 cells per well and grown under standard conditions (37 °C, 5% CO2 in humid air). The next day, the medium was replaced with extracts. After 24 h of treatment, the culture medium was removed and replaced with the MTT solution (1 mg/mL, Sigma Aldrich, Poznan, Poland) and incubated for 2 h in an incubator. The MTT solution was then decanted and 100 µL of isopropanol (Sigma Aldrich, Poznan, Poland) was added to each well. Absorbance was measured at 570 nm and 650 nm for the reference using a microplate reader (Victor X4 Perkin Elmer, PerkinElmer, Inc. Waltham, MA, USA). Cells cultured for 48 h in DMEM were used as a negative control. As a positive control were used cells incubated for 24 h, followed by the addition of DMSO, which were then cultured for another 24 h. Three samples of each type were tested and the results were presented as a percentage of the negative control with the standard deviation. Statistical significance was assessed using one-way ANOVA analysis of variance. Values for which the value **p < 0.001, ** p < 0.01, *p < 0.05 were considered statistically significant.
All the peptides were also assessed in terms of their cytotoxicity against the endothelial cell line EA.h 926. No cytotoxicity was observed (Figure 6) both for incubating cells in the presence of peptides 1–5 for 1 day (Figure 6a) and for 7 days (Figure 6b). Cells cultured in medium without the addition of any substances or harmful agents were used as the Control^− (K^−), while cells treated with DMSO on the second day of incubation were used as the Control^+ (K^+). The dimethyl sulfoxide (DMSO) was added to a final concentration of 5%. An MTT test was used to assess the cytotoxicity of peptides 1–5. […] The tests were performed in the concentration range of 10 μM and 10 mM.
Figure 6 Results of cell metabolic activity by using 3-(4,5-dimethylthiazol-2-yl)-2,5-diphenyltetrazolium bromide (MTT test) of the endothelial cell line EA.h 926 cultured in the presence of peptides 1–5, panel (a)—cells incubated in the presence of peptides for 1 day, panel (b)—cells incubated in the presence of peptides for 7 days. Cytotoxicity tests were performed in five replicates. The presented results are average values. Statistical significance was assessed using one-way ANOVA analysis of variance. Values for which the value **p < 0.001, ** p < 0.01, *p < 0.05 were considered statistically significant (see Supplementary Materials, Figure S1).
In the final stage of the research, we studied the effects of covalently linked conjugates of peptides 2‒5 with chitosan and alginate (Figure 10) on the endothelial cell line EA.hy 926. Experiments were performed for incubation of cells for 1 day (Figure 10a) and 7 days (Figure 10b) to check the effect of alginate and chitosan conjugates with peptides 2‒5 both in the short and long term, which is important from the point of view of the usefulness of materials used in regenerative medicine. As the Control^‒ (K^‒) were again used cells cultured in the medium without the addition of any substances or any harmful factors, while as the Control^+ (K^+) were used cell cultures killed by adding DMSO on the second day of incubation. DMSO was added to give a 5% final concentration in the culture medium. Unmodified chitosan and calcium alginate were also studied. […] Cell viability relative to the […] was reduced by more than 75%. The adverse effect of calcium alginate on the endothelial cell line EA.hy 926 may result from the exchange of Ca^2+ ions from the polysaccharide matrix for monovalent Na^+ and/or K^+ ions, causing the release of large amounts of Ca^2+ ions into the culture medium. This in turn may adversely affect the endothelial cells. […]

| Substance | cytotoxic effect of peptides (MTT test) |
| --- | --- |
| H-(Hyp)6-OH [Peptide 4] | No cytotoxic effect |
| H-(Hyp)9-OH [Peptide 5] | No cytotoxic effect |
| H-(Pro)6-OH [Peptide 2] | No cytotoxic effect |
| H-(Pro)9-OH [Peptide 3] | No cytotoxic effect |
| H-G[Hyp]PA[Hyp]P-OH (SMILES C[C@H](NC(=O)[C@@H]1CCCN1C(=O)[C@@H]1C[C@@H](O)CN1C(=O)CN)C(=O)N1C[C@H](O)C[C@H]1C(=O)N1CCC[C@H]1C(=O)O) [Peptide 1, model collagen fragment, reference compound] | No cytotoxic effect |

same assay, conditions: EA.h 926 cells; 10 mM peptide

| Substance | cytotoxicity at the highest tested concentration (MTT) |
| --- | --- |
| H-(Pro)9-OH [Peptide 3] | comparable toxicity to that at 100 μM |

Reference: publication PMC7412561, “Conjugates of Chitosan and Calcium Alginate with Oligoproline and Oligohydroxyproline Derivatives for Potential Use in Regenerative Medicine” (Materials, 2020)
